Patent US20230219904A1 (SYNGENTA CROP PROTECTION AG, priority 2020, published 2023)

Assays:
Assay type in all cases: in vivo
Details in all cases: evaluated after 13 days
[1] = tested on: Amaranthus retoflexus (AMARE); assay: Pre-emergence herbicidal glasshouse test (Table B1)
How it was run: (§1)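 Potted plants, glasshouse 24/16° C, 14 h light, 65% RH; spray at 1 d (pre) or 8 d (post) post-sowing; 500 g/h default; acetone/water 50:50 + 0.5% Tween 20. Damage read at 13 d, scored 1–5 (5=80-100%, 1=0-19%).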

[2] = tested on: Abutilon theophrasti (ABUTH); assay: as above
How it was run: as §1

[3] = tested on: Echinochloa crus-galh (ECHCG); assay: as above
How it was run: as §1

[4] = tested on: Setaria faberi (SETFA); assay: as above
How it was run: as §1

[5] = tested on: Ipomoea hederacea (IPOHE); assay: as above
How it was run: as §1

[6] = tested on: Amaranthus retoflexus (AMARE); assay: Post-emergence herbicidal glasshouse test (Table B1)
How it was run: as §1

[7] = tested on: Abutilon theophrasti (ABUTH); assay: as above
How it was run: as §1

[8] = tested on: Echinochloa crus-galh (ECHCG); assay: as above
How it was run: as §1

[9] = tested on: Setaria faberi (SETFA); assay: as above
How it was run: as §1

[10] = tested on: Ipomoea hederacea (IPOHE); assay: as above
How it was run: as §1

| Compound | PRE Application AMARE, percentage damage on five-point scale ([1]; applied at 500 g/h) | PRE Application ABUTH, percentage damage on five-point scale ([2]; applied at 500 g/h) | PRE Application ECHCG, percentage damage on five-point scale ([3]; applied at 500 g/h) | PRE Application SETFA, percentage damage on five-point scale ([4]; applied at 500 g/h) | PRE Application IPOHE, percentage damage on five-point scale ([5]; applied) | POST Application AMARE, percentage damage on five-point scale ([6]; applied at 500 g/h) | POST Application ABUTH, percentage damage on five-point scale ([7]; applied at 500 g/h) | POST Application ECHCG, percentage damage on five-point scale ([8]; applied at 500 g/h) | POST Application SETFA, percentage damage on five-point scale ([9]; applied at 500 g/h) | POST Application IPOHE, percentage damage on five-point scale ([10]; applied at 500 g/h) | PRE Application AMARE, percentage damage on five-point scale ([1]; applied at 125 g/ha) | PRE Application ABUTH, percentage damage on five-point scale ([2]; applied at 125 g/ha) | PRE Application ECHCG, percentage damage on five-point scale ([3]; applied at 125 g/ha) | PRE Application SETFA, percentage damage on five-point scale ([4]; applied at 125 g/ha) | PRE Application IPOHE, percentage damage on five-point scale ([5]; applied at 125 g/ha) | POST Application AMARE, percentage damage on five-point scale ([6]; applied at 125 g/ha) | POST Application ABUTH, percentage damage on five-point scale ([7]; applied at 125 g/ha) | POST Application ECHCG, percentage damage on five-point scale ([8]; applied at 125 g/ha) | POST Application SETFA, percentage damage on five-point scale ([9]; applied at 125 g/ha) | POST Application IPOHE, percentage damage on five-point scale ([10]; applied at 125 g/ha) |
| --- | --- | --- | --- | --- | --- | --- | --- | --- | --- | --- | --- | --- | --- | --- | --- | --- | --- | --- | --- | --- |
| Cn1nnnc1NC(=O)c1ccc(OC(F)(F)F)c(NC(=O)C2(C)CC2)c1Cl [Compound 1.033] | 5 (5=80-100%) | 5 (5=80-100%) | 5 (5=80-100%) | 5 (5=80-100%) | 5 (5=80-100%) | 5 (5=80-100%) | 5 (5=80-100%) | 5 (5=80-100%) | 5 (5=80-100%) | 5 (5=80-100%) | – | – | – | – | – | – | – | – | – | – |
| Cc1nnc(NC(=O)c2ccc(OC(F)(F)F)c(N(C)C)c2Cl)o1 [Compound 2.001, 2-chloro-3-(dimethylamino)-N-(5-methyl-1,3,4-oxadiazol-2-yl)-4-(trifluoromethoxy)benzamide] | 5 (5=80-100%) | 4 (4=60-79%) | 5 (5=80-100%) | 5 (5=80-100%) | 3 (3=40-59%) | 5 (5=80-100%) | 4 (4=60-79%) | 5 (5=80-100%) | 5 (5=80-100%) | 5 (5=80-100%) | – | – | – | – | – | – | – | – | – | – |
| Cn1nnnc1NC(=O)c1ccc(OC(F)F)c(NC(=O)c2ccc(F)cc2)c1Cl [Compound 1.099] | – | – | – | – | – | – | – | – | – | – | 5 (5=80-100%) | 4 (4=60-79%) | 1 (1=0-19%) | 1 (1=0-19%) | 3 (3=40-59%) | 4 (4=60-79%) | 4 (4=60-79%) | 4 (4=60-79%) | 3 (3=40-59%) | 4 (4=60-79%) |
| CC(C)C(=O)Nc1c(OC(F)(F)F)ccc(C(=O)Nc2nnnn2C)c1Cl [Compound 1.124] | 5 (5=80-100%) | 4 (4=60-79%) | 5 (5=80-100%) | 4 (4=60-79%) | 1 (1=0-19%) | 5 (5=80-100%) | 5 (5=80-100%) | 5 (5=80-100%) | 5 (5=80-100%) | 5 (5=80-100%) | – | – | – | – | – | – | – | – | – | – |
| Cn1nnnc1NC(=O)c1ccc(OC(F)F)c(N2CCCCC2=O)c1Cl [Compound 1.023] | – | – | – | – | – | – | – | – | – | – | 5 (5=80-100%) | 5 (5=80-100%) | 5 (5=80-100%) | 5 (5=80-100%) | 2 (2=20-39%) | 5 (5=80-100%) | 5 (5=80-100%) | 5 (5=80-100%) | 5 (5=80-100%) | 5 (5=80-100%) |
| CCCn1nnnc1NC(=O)c1ccc(OC(F)(F)F)c(NC(=O)c2ccccn2)c1Cl [Compound 1.132] | 5 (5=80-100%) | 4 (4=60-79%) | 3 (3=40-59%) | 1 (1=0-19%) | 4 (4=60-79%) | 5 (5=80-100%) | 5 (5=80-100%) | 5 (5=80-100%) | 5 (5=80-100%) | 5 (5=80-100%) | – | – | – | – | – | – | – | – | – | – |
